Literature values in patent US20040024003A1, “Flat medicinal preparation for transmucosal administration of oxycodon or a comparable active ingredient in the oral cavity, for use in pain therapy and in addiction therapy” (priority 1999, published 2004).

Tests used:
[1] = in vivo

SMILES: COc1ccc2c3c1O[C@H]1C(=O)CC[C@@]4(O)[C@@H](C2)N(C)CC[C@]314 [oxycodone]
- average duration of action [1]: 4 to 6 h
- time taken to enter the blood (normal peroral administration): 15 to 30 min
- bioavailable fraction following peroral administration (peroral administration): two thirds
